The target in assay [1] is MLKL (full length) (Homo sapiens (Human), UniProt Q8NB16). Briefly: KINOMEscan binding assay, MLKL (full length). The note with it: Table 35. The method, then:
Kinase assays. For most assays, kinase-tagged T7 phage strains were grown in parallel in 24-well blocks in an E. coli host derived from the BL21 strain. E. coli were grown to log-phase and infected with T7 phage from a frozen stock (multiplicity of infection=0.4) and incubated with shaking at 32° C. until lysis (90-150 minutes).
The Hill Slope was set to −1.

For assay [2], the target named is RIP1 (Homo sapiens (Human), UniProt Q13546). Nature of the assay: KINOMEscan binding assay, RIP1. The note with it: Table 35.
Chain of RIP1 (Q13546 whole entry): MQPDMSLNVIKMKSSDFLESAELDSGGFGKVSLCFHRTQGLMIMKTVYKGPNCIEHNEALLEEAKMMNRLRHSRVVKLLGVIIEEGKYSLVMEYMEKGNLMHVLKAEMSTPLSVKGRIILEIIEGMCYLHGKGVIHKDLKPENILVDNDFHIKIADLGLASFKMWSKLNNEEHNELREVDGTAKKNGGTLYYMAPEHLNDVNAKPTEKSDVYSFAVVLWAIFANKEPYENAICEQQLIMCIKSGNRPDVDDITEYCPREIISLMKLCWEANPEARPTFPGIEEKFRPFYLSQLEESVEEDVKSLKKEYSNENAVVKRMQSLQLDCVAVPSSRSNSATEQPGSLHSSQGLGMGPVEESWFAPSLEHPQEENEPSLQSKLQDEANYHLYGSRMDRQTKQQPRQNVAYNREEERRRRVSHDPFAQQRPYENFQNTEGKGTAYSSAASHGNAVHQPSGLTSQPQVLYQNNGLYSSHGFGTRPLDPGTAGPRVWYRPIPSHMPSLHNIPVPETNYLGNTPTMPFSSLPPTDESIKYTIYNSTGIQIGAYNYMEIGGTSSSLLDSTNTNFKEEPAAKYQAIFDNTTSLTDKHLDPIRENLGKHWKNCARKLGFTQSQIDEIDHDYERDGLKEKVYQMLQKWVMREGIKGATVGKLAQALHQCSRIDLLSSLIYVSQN

SMILES strings stand for the structures. pKd: −log10 of the molar value. A value given as a limit tells only on which side of the number the result lay.

Chain of MLKL (full length) (Q8NB16 whole entry): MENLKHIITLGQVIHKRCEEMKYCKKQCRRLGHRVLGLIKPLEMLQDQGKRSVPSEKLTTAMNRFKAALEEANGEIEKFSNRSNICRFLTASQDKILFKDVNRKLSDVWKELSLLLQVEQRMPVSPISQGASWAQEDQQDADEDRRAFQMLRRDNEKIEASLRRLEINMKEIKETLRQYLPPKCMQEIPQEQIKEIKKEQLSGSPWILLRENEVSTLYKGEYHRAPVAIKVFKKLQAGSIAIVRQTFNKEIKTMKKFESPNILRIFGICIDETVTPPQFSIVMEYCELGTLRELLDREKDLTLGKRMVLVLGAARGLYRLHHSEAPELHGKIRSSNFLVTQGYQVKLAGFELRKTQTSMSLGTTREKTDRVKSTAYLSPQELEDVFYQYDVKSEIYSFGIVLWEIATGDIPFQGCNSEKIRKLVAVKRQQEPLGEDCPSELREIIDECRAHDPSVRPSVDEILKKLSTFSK

Consider `CCS(=O)(=O)Nc1ccc(-c2n[nH]c(Nc3ccnc(OC)c3)c2C(N)=O)cc1OCc1ccc(F)cc1` [Compound 18, 3-(4-(ethylsulfonamido)-3-((4-fluorobenzyl)oxy)phenyl) 5-((2-methoxypyridin-4-yl)amino)-1H-pyrazole-4-carboxamide], for which the pKd – broadly, −log10 of the Kd, conventionally taken in molar units – is > 8.00 in assay [1] and < 4.52 in assay [2]. Turning to `CCS(=O)(=O)Nc1ccc(-c2n[nH]c(Nc3cccc(C(F)(F)F)n3)c2C(N)=O)cc1OCc1cccnc1` [Compound 33, 3-(4-(ethylsulfon-amido)-3-(pyridin-3-ylmethoxy)phenyl)-5-((6-(trifluoro-methyl)pyridin-2-yl)amino)-1H-pyrazole-4-carboxamide], the pKd in assay [2] is < 4.52. As to `NC(=O)c1c(-c2ccc(NS(=O)(=O)CC(F)(F)F)cc2)n[nH]c1Nc1cccc(C(F)(F)F)n1` [Compound 43, 3-(4-((2,2,2-trifluoroethyl)sulfonamido)phenyl)-5-((6-(trifluoromethyl)pyridin-2-yl)amino)-1H-pyrazole-4-carboxamide], the pKd in assay [1] is > 8.00; in assay [2], < 4.52. For `NC(=O)c1c(-c2ccc(NS(=O)(=O)CC(F)F)cc2)n[nH]c1Nc1cccc(C(F)(F)F)n1` [Compound 49, 3-(4-((2,2-difluoroethyl)sulfonamido)phenyl)-5-((6-(trifluoromethyl)pyridin-2-yl)amino)-1H-pyrazole-4-carboxamide] the same measures were > 8.00 and < 4.52. With `NC(=O)c1c(-c2ccc(NS(=O)(=O)C3CC3)cc2)n[nH]c1Nc1cccc(C(F)(F)F)n1` [Compound 52, 3-(4-(cyclopropanesulfonamido)phenyl)-5-((6-(trifluoromethyl)pyridin-2-yl)amino)-1H-pyrazole-4-carboxamide], the pKd in assay [1] is > 8.00; in assay [2], < 4.52. Taken in the same sequence, the figures for `NC(=O)c1c(-c2ccc(NS(=O)(=O)C(F)F)cc2)n[nH]c1Nc1cccc(C(F)(F)F)n1` [Compound 53, 3-(4-((difluoromethyl)sulfonamido)phenyl)-5-((6-(trifluoromethyl)pyridin-2-yl)amino)-1H-pyrazole-4-carboxamide] were > 8.00 and < 4.52. Taken in the same sequence, the figures for `CC(C)S(=O)(=O)Nc1ccc(-c2n[nH]c(Nc3cccc(C(F)(F)F)n3)c2C(N)=O)cc1` [Compound 54, 3-(4-((1-methylethyl)sulfonamido)phenyl)-5-((6-(trifluoromethyl)pyridin-2-yl)amino)-1H-pyrazole-4-carboxamide] were > 8.00 and < 4.52. `NC(=O)c1c(-c2ccc(NS(=O)(=O)Cc3ccc(F)cc3)cc2)n[nH]c1Nc1cccc(C(F)(F)F)n1` [Compound 55, 3-(4-(((4-fluorophenyl)methyl)sulfonamido)phenyl)-5-((6-(trifluoromethyl)pyridin-2-yl)amino)-1H-pyrazole-4-carboxamide]: the pKd in assay [2] was < 4.52. As to `NC(=O)c1c(-c2ccc(NS(=O)(=O)Cc3ccc(Cl)c(Cl)c3)cc2)n[nH]c1Nc1cccc(C(F)(F)F)n1` [Compound 56, 3-(4-((3,4-dichlorophenyl)methylsulfonamido)phenyl)-5-((6-(trifluoromethyl)pyridin-2-yl)amino)-1H-pyrazole-4-carboxamide], in assay [2], the pKd is < 4.52. As to `NC(=O)c1c(-c2ccc(NS(=O)(=O)Cc3ccccc3Cl)cc2)n[nH]c1Nc1cccc(C(F)(F)F)n1` [Compound 58, 3-(4-(((2-chlorophenyl)methyl)sulfonamido)phenyl)-5-((6-(trifluoromethyl)pyridin-2-yl)amino)-1H-pyrazole-4-carboxamide], the pKd in assay [2] was < 4.52. Same read-out and setting: for `CCS(=O)(=O)Nc1ccc(-c2n[nH]c(Nc3cnccn3)c2C(N)=O)cc1OC` [Compound 61, 3-(4-(ethylsulfon-amido)-3-methoxy-phenyl)-5-(pyrazin-2-ylamino)-1H-pyrazole-4-carboxamide] the value was < 4.52.

`CCS(=O)(=O)Nc1ccc(-c2n[nH]c(Nc3cnc(C(C)C)cn3)c2C(N)=O)cc1` [Compound 66, 3-(4-(ethylsulfonamido)phenyl)-5-((5-isopropylpyrazin-2-yl)amino)-1H-pyrazole-4-carboxamide]: the pKd in assay [1] is > 8.00; in assay [2] it was < 4.52.

On to `CC(C)S(=O)(=O)Nc1ccc(-c2n[nH]c(Nc3cnccn3)c2C(N)=O)cc1` [Compound 71, 3-(4-((1-methylethyl)sulfonamido)phenyl)-5-(pyrazin-2-ylamino)-1H-pyrazole-4-carboxamide], for which the pKd in assay [1] is > 8.00; in assay [2], < 4.52. Consider `NC(=O)c1c(-c2ccc(NS(=O)(=O)C3CCCCC3)cc2)n[nH]c1Nc1cnccn1` [Compound 74, 3-(4-(cyclohexanesulfonamido)phenyl)-5-(pyrazin-2-ylamino)-1H-pyrazole-4-carboxamide], for which the pKd in assay [2] was < 4.52.

`NC(=O)c1c(-c2ccc(NS(=O)(=O)Cc3ccccc3)cc2)n[nH]c1Nc1cnccn1` [Compound 77, 3-(4-((phenylmethyl)sulfonamido)phenyl)-5-(pyrazin-2-ylamino)-1H-pyrazole-4-carboxamide]: in assay [2], the pKd was < 4.52. Take `CCS(=O)(=O)Nc1ccc(-c2n[nH]c(Nc3cc(C(F)(F)F)ccn3)c2C(N)=O)cc1` [Compound 85, 3-(4-(ethylsulfonamido)phenyl)-5-((4-(trifluoromethyl)pyridin-2-yl)amino)-1H-pyrazole-4-carboxamide]: in assay [2], the pKd is < 4.52. With `CCS(=O)(=O)Nc1ccc(-c2n[nH]c(Nc3ccc4ccccc4c3)c2C(N)=O)cc1` [Compound 86, 3-(4-(ethylsulfonamido)phenyl)-5-(naphthalen-2-ylamino)-1H-pyrazole-4-carboxamide], the pKd was > 8.00 in assay [1] and < 4.52 in assay [2]. `CCS(=O)(=O)Nc1ccc(-c2n[nH]c(Nc3ccc(OC)cn3)c2C(N)=O)cc1` [Compound 88, 3-(4-(ethylsulfonamido)phenyl)-5-((5-methoxypyridin-2-yl)amino)-1H-pyrazole-4-carboxamide]: the pKd in assay [1] was > 8.00. On the same count and under the same terms, for `CCS(=O)(=O)Nc1ccc(-c2n[nH]c(Nc3ccc4ccccc4n3)c2C(N)=O)cc1` [Compound 89, 3-(4-(ethylsulfonamido)phenyl)-5-(quinolin-2-ylamino)-1H-pyrazole-4-carboxamide] the value was > 8.00.

For the molecule `CCS(=O)(=O)Nc1ccc(-c2n[nH]c(Nc3cccc(C)n3)c2C(N)=O)cc1` [Compound 94, 3-(4-(ethylsulfonamido)phenyl)-5-((6-methylpyridin-2-yl)amino)-1H-pyrazole-4-carboxamide], the pKd in assay [2] was < 4.52. Turning to `CCS(=O)(=O)Nc1ccc(-c2n[nH]c(Nc3cccc(OC)n3)c2C(N)=O)cc1` [Compound 107, 3-(4-(ethylsulfonamido)phenyl)-5-((6-methoxypyridin-2-yl)amino)-1H-pyrazole-4-carboxamide], the pKd in assay [1] is > 8.00; in assay [2] it was < 4.52. Take `C#CCS(=O)(=O)Nc1ccc(-c2n[nH]c(Nc3ccnc(OCCOC)c3)c2C(N)=O)cc1` [Compound 109, 5-((2-(2-methoxyethoxy)pyridin-4-yl)amino)-3-(4-(prop-2-yn-1-ylsulfonamido)phenyl)-1H-pyrazole-4-carboxamide]: the pKd was > 8.00 in assay [1] and < 4.52 in assay [2]. `COCCOc1cc(Nc2[nH]nc(-c3ccc(NS(=O)(=O)C(F)(F)F)cc3)c2C(N)=O)ccn1` [Compound 114, 5-((2-(2-methoxyethoxy)pyridin-4-yl)amino)-3-(4-((trifluoromethyl)sulfonamido)phenyl)-1H-pyrazole-4-carboxamide]: the pKd in assay [1] is > 8.00; in assay [2], < 4.52. In the case of `CCS(=O)(=O)Nc1ccc(-c2n[nH]c(Nc3ccnc(OC)c3)c2C(N)=O)cc1` [Compound 121, 3-(4-(ethylsulfonamido)phenyl)-5-((2-methoxypyridin-4-yl)amino)-1H-pyrazole-4-carboxamide], the pKd in assay [1] is > 8.00. With `COCCOc1cc(Nc2[nH]nc(-c3ccc(NS(C)(=O)=O)cc3)c2C(N)=O)ccn1` [Compound 122, 5-((2-(2-methoxyethoxy)pyridin-4-yl)amino)-3-(4-(methylsulfonamido)phenyl)-1H-pyrazole-4-carboxamide], the results for the pKd in assay [1] and in assay [2] were > 8.00 and < 4.52, respectively. As to `CCS(=O)(=O)Nc1ccc(-c2n[nH]c(Nc3cccc(OCCOC)n3)c2C(N)=O)cc1` [Compound 128, 3-(4-(ethylsulfonamido)phenyl)-5-((6-(2-methoxyethoxy)pyridin-2-yl)amino)-1H-pyrazole-4-carboxamide], the pKd in assay [2] is < 4.52.

For the molecule `NC(=O)c1c(-c2ccc(NS(=O)(=O)Cc3cccc(Cl)c3)cc2)n[nH]c1Nc1ccccn1` [Compound 129, 3-(4-(((3-chlorophenyl)methyl)sulfonamido)phenyl)-5-(pyridin-2-ylamino)-1H-pyrazole-4-carboxamide], the pKd in assay [2] was < 4.52. Still for that read-out and setting: in the case of `NC(=O)c1c(-c2ccc(NS(=O)(=O)CCc3ccccc3)cc2)n[nH]c1Nc1ccccn1` [Compound 130, 3-(4-((2-phenylethyl)sulfonamido)phenyl)-5-(pyridin-2-ylamino)-1H-pyrazole-4-carboxamide] it was < 4.52.

On to `CCS(=O)(=O)Nc1ccc(-c2n[nH]c(Nc3ccccn3)c2C(N)=O)cc1` [Compound 131, 3-(4-(ethylsulfonamido)phenyl)-5-(pyridin-2-ylamino)-1H-pyrazole-4-carboxamide], for which the negative logarithm of the Kd (pKd) was > 8.00 in assay [1] and < 4.52 in assay [2]. On to `NC(=O)c1c(-c2ccc(NS(=O)(=O)c3ccccc3)cc2)n[nH]c1Nc1ccccn1` [Compound 133, 3-(4-(phenylsulfonamido)phenyl)-5-(pyridin-2-ylamino)-1H-pyrazole-4-carboxamide], for which the pKd in assay [2] is < 4.52. Same read-out and setting: for `NC(=O)c1c(-c2ccc(NS(=O)(=O)CC3CCC3)cc2)n[nH]c1Nc1ccccn1` [Compound 134] the value was < 4.52.

Values taken from patent US20250074891A1 (Anaxis Pharma Pty Ltd., priority 2021, published 2025).
